Measurements: EP0085842A1, “Antimycosic agents” (BAYER AG, priority 1982, dated 1983)
≈ marks a conversion by molar mass, not a printed value.

Key:
Trichophyton mentagr. = experiment: Antimycotic in-vitro activity, serial dilution test (MIC); type: cell-based, Trichophyton mentagrophytes; details: Sabouraud's milieu d'epreuve, 20°C, 96 h, inoculum 5 x 10^4 Keime/ml, read-out: MHK-Werte in γ/ml Nährmedium Trichophyton mentagr.
Method: (§1) Versuchsbeschreibung: • Die in-vitro-Prüfungen wurden im Reihenverdünnungstest mit Keiminokula von durchschnittlich 5 x 10^4 Keimen/ml Substrat durchgeführt. Als Nährmedium dienten • a) für Dermatophyten und Schimmelpilze: Sabouraud's milieu d'epreuve • b) für Hefen: • Fleischextrakt-Traubenzucker-Bouillon.
(§2) Die Bebrütungstemperatur betrug 20°C, die Bebrütungsdauer lag bei 24 bis 96 Stunden bei Hefen und 96 Stunden bei Dermatophyten und Schimmelpilzen.

Aspergillus fumigatus = experiment: as above; type: cell-based; details: Sabouraud's milieu d'epreuve, 20°C, 96 h, inoculum 5 x 10^4 Keime/ml, read-out: MHK-Werte in γ/ml Nährmedium Aspergillus fumigatus
Method: as §1, §2

Candida albicans = experiment: as above; type: cell-based; details: Fleischextrakt-Traubenzucker-Bouillon, 20°C, 24 to 96 h, inoculum 5 x 10^4 Keime/ml, read-out: MHK-Werte in γ/ml Nährmedium Candida albicans
Method: as §1, §2

Microsporum canis = experiment: as above; type: cell-based; details: Sabouraud's milieu d'epreuve, 20°C, 96 h, inoculum 5 x 10^4 Keime/ml, read-out: MHK-Werte in γ/ml Nährmedium Microsporum canis
Method: as §1, §2

Torulopsis glabrata = experiment: as above; type: cell-based; details: Nakaseomyces glabratus; Fleischextrakt-Traubenzucker-Bouillon, 20°C, 24 to 96 h, inoculum 5 x 10^4 Keime/ml; read-out: MHK-Werte in γ/ml Nährmedium Torulopsis glabrata
Method: as §1, §2

Candida-Zellen = experiment: Antimycotic in-vivo activity (oral) in mouse candidosis; design: species or system Mäuse vom Typ SPF-CF1; key to Wirkung: +++++: sehr gute Wirkung = 90 % Überlebende am 6.Tag p.i.; ++++: gute Wirkung = 80 % Überlebende am 6.Tag p.i.; +++: Wirkung = 60 % Überlebende am 6.Tag p.i.; ++: schwache Wirkung = 40 % Überlebende am 6.Tag p.i.; +: Spur Wirkung = unter 40 % Überlebende am 6.Tag p.i.; k.W.: keine Wirkung; details: for Wirkung: mice infected i.v. with Candida, oral 50 - 100 mg/kg one hour before and seven hours after infection, survivors on day 6 p.i.; for Wirkung compared with known compounds (A), (B), (C) and (D): mouse candidosis, oral 50 - 100 mg/kg
Method: Mäuse vom Typ SPF-CF1 wurden intravenös mit 1 - 2 x 10^6 logarithmisch wachsenden Candida-Zellen, die in physiologischer Kochsalzlösung suspendiert werden, infiziert. Eine Stunde vor und sieben Sunden nach der Infektion werden die Tiere mit jeweils 50 - 100 mg/kg Körpergewicht der Präparate oral behandelt.
Unbehandelte Tiere starben 3 bis 6 Tage post infektionem. Die Überlebensrate am 6. Tag post infektionem betrug bei unbehandelten Kontrolltieren etwa 5 %.
+++++ = sehr gute Wirkung = 90 % Überlebende am 6.Tag p.i. ++++ = gute Wirkung = 80 % Überlebende am 6.Tag p.i. +++ = Wirkung = 60 % Überlebende am 6.Tag p.i. ++ = schwache Wirkung = 40 % Überlebende am 6.Tag p.i. + = Spur Wirkung = unter 40 % Überlebende am 6.Tag p.i. k.W. = keine Wirkung

[1] = test system: Trichophyton mentagrophytes; experiment: Antimycotic in-vivo activity (local) in experimental guinea pig trichophytosis; design: species or system Meerschweinchen; key: +++++: sehr gute Wirkung = keine Infektionszeichen am 12.-15.Tag p.i.; ++++: gute Wirkung = geringe Rötung, vereinzelt Schuppen; +++: Wirkung = Rötung, Schuppung, ohne Haarausfall; ++: schwache Wirkung = Rötung, Schuppung, Haarausfall; +: Spur Wirkung = flächiger Haarausfall, entzündliche Hautreaktion
[2] = local treatment, trichophytosis model
[3] = local, 1 x daily from day 3 p.i., 15 %ige Lösung in Dimethylsulfoxid:Glycerin = 1:4, infection signs day 12-15 p.i.

MIC (Trichophyton mentagr.) [µg/mL]	MIC (Aspergillus fumigatus) [µg/mL]	MIC (Candida albicans) [µg/mL]	MIC (Microsporum canis) [µg/mL]	MIC (Torulopsis glabrata) [µg/mL]	SMILES	Wirkung (Candida-Zellen)	Wirkung compared with known compounds (A), (B), (C) and (D) (Candida-Zellen)	Wirkung [1, 2]	Wirkung [1, 3]
< 1	4 (≈ 8.8 µM)	16 (≈ 35.2 µM)	64 (≈ 141 µM)	8 (≈ 17.6 µM)	CC(C)(Oc1ccc(Cl)cc1Cl)C(O)(CCc1ccc(Cl)cc1)Cn1cncn1 (centres unmarked) [Beispiel 30]	–	–	–	–
< 1	2 (≈ 5.29 µM)	2 (≈ 5.29 µM)	2 (≈ 5.29 µM)	4 (≈ 10.6 µM)	CC(CF)(CF)C(O)(CCc1ccc(Cl)cc1Cl)Cn1cncn1 (centres unmarked) [Beispiel 27]	+++ (Wirkung = 60 % Überlebende am 6.Tag p.i.)	bessere Wirkung	Wirkung bis gute Wirkung	+++
< 1	< 1	< 1	< 1	2 (≈ 6.14 µM)	CC(C)(C)C(O)(CSc1ccc(Cl)cc1)Cn1cncn1 (centres unmarked) [Beispiel 3, 2-(4-Chlorphenylthiomethyl)-3,3-dimethyl-1-(1,2,4-triazol-1-yl)-butan-2-ol]	++++ (gute Wirkung = 80 % Überlebende am 6.Tag p.i.)	bessere Wirkung	–	–
–	–	–	–	–	C=CC(C)(C)C(O)(COc1ccc(F)cc1)Cn1ccnc1 (centres unmarked) [Beispiel 40]	++ (schwache Wirkung = 40 % Überlebende am 6.Tag p.i.)	bessere Wirkung	–	–
< 1	< 1	8 (≈ 18.3 µM)	2 (≈ 4.58 µM)	2 (≈ 4.58 µM)	CC(C)(COc1ccc(Cl)cc1)C(O)(COc1ccc(Cl)cc1)Cn1cncn1 (centres unmarked) [Beispiel 19]	–	–	–	–
< 1	8 (≈ 21.4 µM)	< 1	2 (≈ 5.34 µM)	2 (≈ 5.34 µM)	COCC(C)(C)C(O)(COc1ccc(Cl)cc1Cl)Cn1cncn1 (centres unmarked) [Beispiel 16]	–	–	–	–
< 1	4 (≈ 11.3 µM)	< 1	4 (≈ 11.3 µM)	4 (≈ 11.3 µM)	CCOCC(C)(C)C(O)(COc1ccc(Cl)cc1)Cn1cncn1 (centres unmarked) [Beispiel 18]	–	–	–	–
< 1	4 (≈ 11.2 µM)	< 1	8 (≈ 22.5 µM)	4 (≈ 11.2 µM)	C=CC(C)(C)C(O)(COc1ccc(Cl)cc1Cl)Cn1cncn1 (centres unmarked) [Beispiel 23]	+ (Spur Wirkung = unter 40 % Überlebende am 6.Tag p.i.)	bessere Wirkung	–	–
4 (≈ 11.1 µM)	16 (≈ 44.5 µM)	< 1	8 (≈ 22.3 µM)	2 (≈ 5.57 µM)	CC(C)(CF)C(O)(CCc1ccc(Cl)cc1Cl)Cn1ccnc1 (centres unmarked) [Beispiel 38]	+++ (Wirkung = 60 % Überlebende am 6.Tag p.i.)	bessere Wirkung	–	–
< 1	4 (≈ 13.1 µM)	4 (≈ 13.1 µM)	8 (≈ 26.2 µM)	8 (≈ 26.2 µM)	C=CC(C)(C)C(O)(COc1ccc(F)cc1)Cn1cncn1 (centres unmarked) [Beispiel 24]	++ (schwache Wirkung = 40 % Überlebende am 6.Tag p.i.)	bessere Wirkung	–	–
< 1	< 1	< 1	< 1	32 (≈ 88 µM)	C=CC(C)(C)C(O)(COc1ccc(-c2ccccc2)cc1)Cn1cncn1 (centres unmarked) [Beispiel 4, 4-(4-Biphenylyloxymethyl)-3,3-dimethyl-4-hydroxy-5-(1,2,4-triazol-1-yl)-1-penten]	+++++ (sehr gute Wirkung = 90 % Überlebende am 6.Tag p.i.)	bessere Wirkung	–	–
4 (≈ 13.8 µM)	32 (≈ 111 µM)	32 (≈ 111 µM)	4 (≈ 13.8 µM)	> 64	Cc1ccccc1OCC(O)(Cn1cncn1)C(C)(C)C (centres unmarked) [(B), reference compound]	k.W.	–	–	–
< 1	< 1	< 1	< 1	< 1	CC(C)(Oc1ccc(Cl)cc1)C(O)(CCc1ccc(Cl)cc1)Cn1ccnc1 (centres unmarked) [Beispiel 34]	–	–	–	–
2 (≈ 6.18 µM)	32 (≈ 99 µM)	< 1	8 (≈ 24.7 µM)	2 (≈ 6.18 µM)	COCC(C)(C)C(O)(COc1ccc(F)cc1)Cn1cncn1 (centres unmarked) [Beispiel 20]	–	–	–	–
4 (≈ 11.7 µM)	2 (≈ 5.83 µM)	4 (≈ 11.7 µM)	16 (≈ 46.7 µM)	2 (≈ 5.83 µM)	CC(CF)(CF)C(O)(CCc1ccc(Cl)cc1)Cn1ccnc1 (centres unmarked) [Beispiel 37]	++++ (gute Wirkung = 80 % Überlebende am 6.Tag p.i.)	bessere Wirkung	–	–
2 (≈ 5.89 µM)	8 (≈ 23.5 µM)	< 1	4 (≈ 11.8 µM)	8 (≈ 23.5 µM)	COCC(C)(C)C(O)(COc1ccc(Cl)cc1)Cn1cncn1 (centres unmarked) [Beispiel 2]	–	–	–	–
32 (≈ 111 µM)	> 64	32 (≈ 111 µM)	–	> 64	Cc1ccccc1OCC(O)(Cn1ccnc1)C(C)(C)C (centres unmarked) [(C), reference compound]	k.W.	–	–	–
< 1	< 1	16 (≈ 36.8 µM)	2 (≈ 4.6 µM)	2 (≈ 4.6 µM)	CC(C)(COc1ccc(Cl)cc1)C(O)(CCc1ccc(Cl)cc1)Cn1cncn1 (centres unmarked) [Beispiel 29]	–	–	–	–
< 1	4 (≈ 11.3 µM)	< 1	< 1	4 (≈ 11.3 µM)	COCC(C)(C)C(O)(COc1ccc(Cl)cc1C)Cn1cncn1 (centres unmarked) [Beispiel 17]	–	–	–	–
2 (≈ 5.3 µM)	8 (≈ 21.2 µM)	< 1	4 (≈ 10.6 µM)	4 (≈ 10.6 µM)	CC(CF)(CF)C(O)(CCc1ccc(Cl)cc1Cl)Cn1ccnc1 (centres unmarked) [Beispiel 36]	++++ (gute Wirkung = 80 % Überlebende am 6.Tag p.i.)	bessere Wirkung	–	–
2 (≈ 5.82 µM)	8 (≈ 23.3 µM)	< 1	4 (≈ 11.6 µM)	16 (≈ 46.5 µM)	CC(C)(CF)C(O)(CSc1ccccc1Cl)Cn1cncn1 (centres unmarked) [Beispiel 11]	–	–	–	–
8 (≈ 27.9 µM)	64 (≈ 223 µM)	2 (≈ 6.98 µM)	16 (≈ 55.9 µM)	16 (≈ 55.9 µM)	Cc1ccccc1CCC(O)(Cn1ccnc1)C(C)(C)C (centres unmarked) [(D), reference compound]	k.W.	–	–	–
–	–	–	–	–	CC(CF)(CF)C(O)(COc1ccc(Cl)cc1)Cn1ccnc1 (centres unmarked) [Beispiel 31]	++++ (gute Wirkung = 80 % Überlebende am 6.Tag p.i.)	bessere Wirkung	Wirkung bis gute Wirkung	+++
< 1	< 1	< 1	2 (≈ 5.29 µM)	< 1	CC(C)(CF)C(O)(CSc1ccc(Cl)c(Cl)c1)Cn1cncn1 (centres unmarked) [Beispiel 12]	++++ (gute Wirkung = 80 % Überlebende am 6.Tag p.i.)	bessere Wirkung	–	–
< 1	< 1	4 (≈ 8.55 µM)	< 1	< 1	CC(C)(COc1ccc(Cl)cc1Cl)C(O)(CCc1ccc(Cl)cc1)Cn1ccnc1 (centres unmarked) [Beispiel 35]	–	–	–	–
8 (≈ 25.9 µM)	32 (≈ 104 µM)	< 1	16 (≈ 51.8 µM)	2 (≈ 6.48 µM)	CC(C)(C)C(O)(COc1ccc(Cl)cc1)Cn1ccnc1 (centres unmarked) [(A), reference compound]	k.W.	–	–	–
< 1	32 (≈ 90.1 µM)	2 (≈ 5.63 µM)	16 (≈ 45 µM)	< 1	C=CC(C)(C)C(O)(COc1ccc(Cl)cc1Cl)Cn1ccnc1 (centres unmarked) [Beispiel 39]	++ (schwache Wirkung = 40 % Überlebende am 6.Tag p.i.)	bessere Wirkung	–	–
2 (≈ 6.51 µM)	2 (≈ 6.51 µM)	< 1	4 (≈ 13 µM)	4 (≈ 13 µM)	Cc1ccc(OCC(O)(Cn2cncn2)C(C)(C)CF)cc1 (centres unmarked) [Beispiel 6]	–	–	–	–
